What was measured:
CDK12/CycK complex = CDK12/CycK complex (Homo sapiens, UniProt Q9NYV4); assay: Measurement of CDK12 inhibitory activity by binding assay (BODIPY-FL labeled AT-7519 high concentration conditions, 1320 nM); settings: inhibitory rate against CDK12 at 1 μM test compound, 1320 nM BODIPY-FL-labeled AT-7519, 8 nM CDK12/CycK
Procedure: (4) Measurement of CDK12 Inhibitory Activity by Binding Assay (BODIPY-FL Labeled AT-7519 High Concentration Conditions)
His-tagged CDK12/CycK complex was blended with a binding assay buffer supplemented with BODIPY-FL labeled AT-7519, terbium-labeled streptavidin and biotin-labeled anti-histidine antibody. This solution was added to an assay plate containing a test compound dispensed therein, and the mixture was left standing for 120 min at room temperature. The final concentration of CDK12/CycK complex, BODIPY-FL-labeled AT-7519, terbium-labeled streptavidin and biotin-labeled anti-histidine antibody was set to 8 nM, 1320 nM, 0.2 nM, and 0.4 nM, respectively. The fluorescence intensity derived from terbium and BODIPY-FL was measured using Envision. The signal value of each well was determined using the TR-FRET ratio calculated by the following formula. TR-FRET ratio=(fluorescence value of BODIPY-FL)÷(fluorescence value of terbium)
The inhibitory rate (%) of the test compound against CDK12 was calculated by the following formula. Inhibitory rate (%)=(1−(TR-FRET ratio of test compound−blank)÷(control−blank))×100
The TR-FRET ratio of the CDK12 enzyme reaction mixture under compound non-addition conditions is indicated as control, and the TR-FRET ratio under 30 μM AT-7519 addition conditions is indicated as blank.
The inhibitory rate of the test compound against CDK12 at 1 μM is shown below.

A2780 cells = assay: In vitro proliferation suppression test (CellTiter-Glo); format: cell-based, human; settings: Homo sapiens, 72 h, A2780 cell proliferation inhibitory rate at 1 μM test compound, three days
Procedure: Experimental Example 4: In Vitro Proliferation Suppression Test
The proliferation suppressive activity of compound in A2780 cells was evaluated by the following method.
A2780 cells were seeded in a 384-well white plate at a cell density of 1,000 cells/40 μL/well or a 96-well white plate at a cell density of 1,000 cells/90 μL/well using an assay medium (RPMI1640 medium containing 10% fetal bovine serum (FUJIFILM Wako Pure Chemical Corporation)) and incubated at 37° C. in 5% CO2.
The next day, a test compound dissolved in dimethyl sulfoxide (DMSO) was diluted with an assay medium, the obtained compound solution was added by 40 μL/well or 10 μL/well to each well of the plate containing A2780 cells and the mixture was incubated (test compound addition group). In addition, a similar reaction was performed without adding the test compound (test compound non-addition group).
Three days later, 80 μL or 100 μL of CellTiter-Glo reagent (Promega) was added, and the mixture was stirred for 10 min. Thereafter, the luminescence of each well was measured by ARVO-MX multilabel counter (Perkin Elmer Inc.).
The proliferation inhibitory rate (%) of each test compound against A2780 cells was calculated by the following calculation formula. Proliferation inhibitory rate (%)=(1−luminescence of test compound addition group÷luminescence of test compound non-addition group)×100
The A2780 cell proliferation inhibitory rate (%) of 1 μM test compound is shown below.

Sequence of CDK12/CycK complex (Q9NYV4 whole entry, species assumed): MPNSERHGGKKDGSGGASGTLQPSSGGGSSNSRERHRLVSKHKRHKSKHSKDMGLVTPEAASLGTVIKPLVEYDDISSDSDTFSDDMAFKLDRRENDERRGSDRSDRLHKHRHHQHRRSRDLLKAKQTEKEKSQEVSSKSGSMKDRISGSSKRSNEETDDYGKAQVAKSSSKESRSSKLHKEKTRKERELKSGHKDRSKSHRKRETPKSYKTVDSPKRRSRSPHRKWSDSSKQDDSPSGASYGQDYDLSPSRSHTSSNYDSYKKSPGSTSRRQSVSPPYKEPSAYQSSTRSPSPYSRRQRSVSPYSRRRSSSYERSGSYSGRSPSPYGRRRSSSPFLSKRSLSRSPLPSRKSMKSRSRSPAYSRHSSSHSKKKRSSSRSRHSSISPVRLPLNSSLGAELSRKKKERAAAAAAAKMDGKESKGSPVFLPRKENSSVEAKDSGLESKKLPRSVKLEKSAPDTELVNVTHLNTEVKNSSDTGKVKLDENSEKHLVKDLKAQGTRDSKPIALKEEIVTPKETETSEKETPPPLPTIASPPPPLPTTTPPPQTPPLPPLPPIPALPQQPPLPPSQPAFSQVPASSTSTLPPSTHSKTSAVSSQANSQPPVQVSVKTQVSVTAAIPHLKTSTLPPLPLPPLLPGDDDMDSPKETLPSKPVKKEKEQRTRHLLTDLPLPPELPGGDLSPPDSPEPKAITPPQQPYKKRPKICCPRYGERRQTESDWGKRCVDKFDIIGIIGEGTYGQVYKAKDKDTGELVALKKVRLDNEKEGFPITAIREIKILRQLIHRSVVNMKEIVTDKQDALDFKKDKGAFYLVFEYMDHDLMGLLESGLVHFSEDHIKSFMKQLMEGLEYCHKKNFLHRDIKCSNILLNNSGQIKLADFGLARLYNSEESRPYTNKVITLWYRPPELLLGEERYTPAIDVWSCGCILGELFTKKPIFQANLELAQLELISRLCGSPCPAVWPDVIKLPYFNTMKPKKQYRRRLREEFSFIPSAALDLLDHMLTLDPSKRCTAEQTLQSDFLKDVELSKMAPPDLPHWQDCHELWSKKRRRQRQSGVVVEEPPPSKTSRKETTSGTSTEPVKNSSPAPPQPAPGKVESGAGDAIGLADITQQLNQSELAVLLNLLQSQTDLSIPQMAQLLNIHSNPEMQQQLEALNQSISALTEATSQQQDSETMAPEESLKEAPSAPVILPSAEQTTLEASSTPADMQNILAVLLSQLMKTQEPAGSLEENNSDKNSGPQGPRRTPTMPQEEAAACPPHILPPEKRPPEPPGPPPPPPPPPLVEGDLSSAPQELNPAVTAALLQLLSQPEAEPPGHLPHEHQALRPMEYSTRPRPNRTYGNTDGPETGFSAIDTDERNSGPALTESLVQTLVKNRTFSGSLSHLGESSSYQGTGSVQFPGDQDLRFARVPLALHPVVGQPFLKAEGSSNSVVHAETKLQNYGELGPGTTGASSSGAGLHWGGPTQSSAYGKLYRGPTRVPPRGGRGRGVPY
Sequence of CDK12/CycK complex (O75909 whole entry partner, species assumed): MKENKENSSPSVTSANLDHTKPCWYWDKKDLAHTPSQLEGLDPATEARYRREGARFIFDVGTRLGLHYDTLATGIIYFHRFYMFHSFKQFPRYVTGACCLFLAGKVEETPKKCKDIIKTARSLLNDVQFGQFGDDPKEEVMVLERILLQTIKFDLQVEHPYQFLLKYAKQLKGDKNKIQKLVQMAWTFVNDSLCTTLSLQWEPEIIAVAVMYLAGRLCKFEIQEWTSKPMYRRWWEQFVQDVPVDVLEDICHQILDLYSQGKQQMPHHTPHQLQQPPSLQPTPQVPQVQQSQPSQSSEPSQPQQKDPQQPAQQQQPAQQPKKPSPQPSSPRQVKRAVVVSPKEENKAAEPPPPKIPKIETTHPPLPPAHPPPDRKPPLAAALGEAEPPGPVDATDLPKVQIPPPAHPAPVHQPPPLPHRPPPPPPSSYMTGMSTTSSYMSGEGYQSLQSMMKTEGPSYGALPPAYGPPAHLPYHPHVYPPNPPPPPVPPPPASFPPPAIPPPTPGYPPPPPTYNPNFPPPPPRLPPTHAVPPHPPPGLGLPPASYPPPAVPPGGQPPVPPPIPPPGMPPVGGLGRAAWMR

Structure (SMILES): COc1ncc(-c2ccc(N(C(=O)NCC(F)F)[C@H]3CC[C@H](Nc4ncc(C(F)(F)F)c(-c5n[nH]cc5Cl)n4)CC3)nc2)cn1 [Example 693, 1-(trans-4-((4-(4-chloro-1H-pyrazol-3-yl)-5-(trifluoromethyl)pyrimidin-2-yl)amino)cyclohexyl)-3-(2,2-difluoroethyl)-1-(5-(2-methoxypyrimidin-5-yl)pyridin-2-yl)urea]
- inhibition at 1 µM (CDK12/CycK complex): 100%
- inhibition at 1 µM (A2780 cells): 98%

Structure (SMILES): COc1ncc(-c2ccc(N(C(=O)NCC(F)(F)F)[C@H]3CC[C@H](Nc4ncc(C(F)(F)F)c(-c5n[nH]cc5Cl)n4)CC3)nc2)cn1 [Example 729, 1-(trans-4-((4-(4-chloro-1H-pyrazol-3-yl)-5-(trifluoromethyl)pyrimidin-2-yl)amino)cyclohexyl)-1-(5-(2-methoxypyrimidin-5-yl)pyridin-2-yl)-3-(2,2,2-trifluoroethyl)urea]
- inhibition at 1 µM (CDK12/CycK complex): 92%
- inhibition at 1 µM (A2780 cells): 98%

Structure (SMILES): COc1ncc(-c2cnc(N(C(=O)NCC(C)(F)F)[C@H]3CC[C@H](Nc4ncc(C(F)(F)F)c(-c5n[nH]cc5Cl)n4)CC3)cn2)cn1 [Example 740, 1-(trans-4-((4-(4-chloro-1H-pyrazol-3-yl)-5-(trifluoromethyl)pyrimidin-2-yl)amino)cyclohexyl)-3-(2,2-difluoropropyl)-1-(5-(2-methoxypyrimidin-5-yl)pyrazin-2-yl)urea]
- inhibition at 1 µM (CDK12/CycK complex): 86%
- inhibition at 1 µM (A2780 cells): 96%

Structure (SMILES): COc1ncc(-c2cnc(N(C(=O)NCC3(F)CC3)[C@H]3CC[C@H](Nc4ncc(C(F)(F)F)c(-c5n[nH]cc5Cl)n4)CC3)cn2)cn1 [Example 742, 1-(trans-4-((4-(4-chloro-1H-pyrazol-3-yl)-5-(trifluoromethyl)pyrimidin-2-yl)amino)cyclohexyl)-3-((1-fluorocyclopropyl)methyl)-1-(5-(2-methoxypyrimidin-5-yl)pyrazin-2-yl)urea]
- inhibition at 1 µM (CDK12/CycK complex): 87%
- inhibition at 1 µM (A2780 cells): 96%

Structure (SMILES): COc1ncc(-c2cnc(N(C(=O)NCC(F)(F)F)[C@H]3CC[C@H](Nc4ncc(C(F)(F)F)c(-c5n[nH]cc5Cl)n4)CC3)cn2)cn1 [Example 743, 1-(trans-4-((4-(4-chloro-1H-pyrazol-3-yl)-5-(trifluoromethyl)pyrimidin-2-yl)amino)cyclohexyl)-1-(5-(2-methoxypyrimidin-5-yl)pyrazin-2-yl)-3-(2,2,2-trifluoroethyl)urea]
- inhibition at 1 µM (CDK12/CycK complex): 81%
- inhibition at 1 µM (A2780 cells): 95%

Structure (SMILES): COc1ncc(-c2cnc(N(C(=O)NCC(F)F)[C@H]3CC[C@H](Nc4ncc(C(F)(F)F)c(-c5n[nH]cc5Cl)n4)CC3)cn2)cn1 [Example 744, 1-(trans-4-((4-(4-chloro-1H-pyrazol-3-yl)-5-(trifluoromethyl)pyrimidin-2-yl)amino)cyclohexyl)-3-(2,2-difluoroethyl)-1-(5-(2-methoxypyrimidin-5-yl)pyrazin-2-yl)urea]
- inhibition at 1 µM (CDK12/CycK complex): 92%
- inhibition at 1 µM (A2780 cells): 97%

Structure (SMILES): CCNC(=O)N(c1cnc(-c2cnn(C)c2)cn1)[C@H]1CC[C@H](Nc2ncc(C(F)(F)F)c(-c3ccn(C(F)F)n3)n2)CC1 [Example 764, 1-(trans-4-((4-(1-(difluoromethyl)-1H-pyrazol-3-yl)-5-(trifluoromethyl)pyrimidin-2-yl)amino)cyclohexyl)-3-ethyl-1-(5-(1-methyl-1H-pyrazol-4-yl)pyrazin-2-yl)urea]
- inhibition at 1 µM (CDK12/CycK complex): 91%
- inhibition at 1 µM (A2780 cells): 95%

Structure (SMILES): COc1ncc(-c2cnc(N(C(=O)OCC(F)F)[C@H]3CC[C@H](Nc4ncc(C(F)(F)F)c(-c5cncc(S(C)(=O)=O)c5)n4)CC3)cn2)cn1 [Example 766, 2,2-difluoroethyl (trans-4-((4-(5-(methanesulfonyl)pyridin-3-yl)-5-(trifluoromethyl)pyrimidin-2-yl)amino)cyclohexyl) (5-(2-methoxypyrimidin-5-yl)pyrazin-2-yl)carbamate]
- inhibition at 1 µM (CDK12/CycK complex): 96%
- inhibition at 1 µM (A2780 cells): 99%
